Measured values as given in US20180214428A1, “3-(1H-INDOL-2-YL)-1H-PYRAZOLO[3,4-B]PYRIDINES AND THERAPEUTIC USES THEREOF” (Samumed, LLC, priority 2015, published 2018).
pEC50: −log10 of the molar value.

How the values were obtained:
[1] = system: primary human mesenchymal stem cells (hMSCs); assay: Induction of chondrogenesis in primary human mesenchymal stem cells; type: cell-based; conditions: Homo sapiens, Mesenchymal stem cells, 144 h, 6 days; for Emax: chondrogenic nodules, TGF-β3 (10 ng/mL) positive control, read-out: Max. Activity as % TGF-β3 activity; for EC50: concentration required to induce 50% levels of chondrogenesis vs TGF-β3, read-out: Conc (nM) of 50% TGF-β3 activity
Description: Representative compounds were screened using primary human mesenchymal stem cells (hMSCs) to determine their ability to induce chondrogenesis (process by which cartilage is developed).
Primary human mesenchymal stem cells (hMSCs) were purchased from Lonza (Walkersville, Md.) and expanded in Mesenchymal Stem Cell Growth Media (Lonza). Cells between passage 3 and 6 were used for the experiments.
Each compound was dissolved in DMSO as a 10 mM stock and used to prepare compound source plates. Serial dilution (1:3, 6-point dose-response curves from 2700 nM to 10 nM) and compound transfer was performed using the ECHO 550 (Labcyte, Sunnyvale, Calif.) into 96-well clear bottom assay plates (Greiner Bio-One) with appropriate DMSO backfill for a final DMSO concentration of 0.03%. hMSCs were plated at 20,000 cells/well in 250 μL/well Incomplete Chondrogenic Induction Medium (Lonza; DMEM, dexamethasone, ascorbate, insulin-transferrin-selenium [ITS supplement], gentamycin-amphotericin [GA-1000], sodium pyruvate, proline and L-glutamine). TGF-β3 (10 ng/mL) was used as a positive control for differentiation while negative control wells were treated with 75 nL DMSO for normalization and calculating EC50 values. Cells were incubated at 37° C. and 5% CO2 for 6 days. To image chondrogenic nodules, the cells were fixed using 4% formaldehyde (Electron Microscopy Sciences), and stained with 2 μg/mL Rhodamine B (Sigma-Aldrich) and 20 μM Nile Red (Sigma-Aldrich) [Johnson K., et. al, A Stem Cell-Based Approach to Cartilage Repair, Science, (2012). 336(6082), 717-721]. The nodules imaged (4 images per well at 4× magnification) by excitation at 531 nm and emission at 625 nm and quantified using the CellInsight CX5 (Thermo Scientific). Number of nodules in each well was normalized to the average of 3 DMSO treated wells on the same plate using Excel (Microsoft Inc.). The normalized averages (fold change over DMSO) of 3 replicate wells for each compound concentration were calculated. Due to solubility limitations of some of the compounds, curve fitting was incomplete leading to inaccurate EC50 determinations.
Using TGF-β3 as a positive control, the concentration of representative compounds required to induce 50% levels of chondrogenesis is reported. In addition, the maximum activity of each compound and the respective dose that each compound reached maximum chondrogenesis activity is reported.

[2] = system: Wnt activity (Sp5-Luc reporter gene, SW480 colon carcinoma cells); assay: Screening assay for Wnt activity: Sp5-Luc reporter gene assay in SW480 cells; type: cell-based, human; conditions: Homo sapiens; for pEC50: overnight incubation; for inhibition at 10 µM: given for EC50 of >10 μM, read-out: percent inhibition at 10 μM
In short: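 SW480 cells stably transduced with a luciferase reporter driven by an Sp5 promoter of eight TCF/LEF sites were plated at 4,000 cells/well in 1% FBS medium. They were exposed overnight at 37° C to a 10-point 1:3 dilution series from 10 μM (0.1% DMSO). Luminescence was normalized to DMSO for four-parameter EC50, or percent inhibition at 10 μM.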

Compound	Emax [1] [%]	EC50 [1] [nM]	pEC50 [2]	inhibition at 10 µM [2] [%]
CN1CCN(c2cccc3[nH]c(-c4n[nH]c5ncc(-c6cncc(CN7CCCCC7)c6)cc45)cc23)CC1 [Compound 215, 3-(4-(4-Methylpiperazin-1-yl)-1H-indol-2-yl)-5-(5-(piperidin-1-ylmethyl)pyridin-3-yl)-1H-pyrazolo[3,4-b]pyridine]	51	300	5.32	
O=C(Nc1cncc(-c2cnc3[nH]nc(-c4cc5c(-c6ccccn6)cccc5[nH]4)c3c2)c1)c1ccccc1 [Compound 128, N-(5-(3-(4-(Pyridin-2-yl)-1H-indol-2-yl)-1H-pyrazolo[3,4-b]pyridin-5-yl)pyridin-3-yl)benzamide]	565	300	6.41	
CN1CCN(c2cccc3[nH]c(-c4n[nH]c5ncc(-c6cncc(NC(=O)C7CCCC7)c6)cc45)cc23)CC1 [Compound 222, N-(5-(3-(4-(4-Methylpiperazin-1-yl)-1H-indol-2-yl)-1H-pyrazolo[3,4-b]pyridin-5-yl)pyridin-3-yl)cyclopentanecarboxamide]	408	100	5.98	
c1ccc2[nH]c(-c3n[nH]c4ncc(-c5cncc(CN6CCCC6)c5)cc34)cc2c1 [Compound 240, 3-(1H-Indol-2-yl)-5-(5-(pyrrolidin-1-ylmethyl)pyridin-3-yl)-1H-pyrazolo[3,4-b]pyridine]	98	10	5.85	
CCNCc1cncc(-c2cnc3[nH]nc(-c4cc5c(N6CCCCC6)cccc5[nH]4)c3c2)c1 [Compound 150, N-((5-(3-(4-(Piperidin-1-yl)-1H-indol-2-yl)-1H-pyrazolo[3,4-b]pyridin-5-yl)pyridin-3-yl)methyl)ethanamine]	91	30	5.33	
CCCC(=O)Nc1cncc(-c2cnc3[nH]nc(-c4cc5ccccc5[nH]4)c3c2)c1 [Compound 243, N-(5-(3-(1H-Indol-2-yl)-1H-pyrazolo[3,4-b]pyridin-5-yl)pyridin-3-yl) butyramide]	28		6.28	
CCNCc1cncc(-c2cnc3[nH]nc(-c4cc5c(-c6cc(F)cc(NCCN(C)C)c6)cccc5[nH]4)c3c2)c1 [Compound 428, N^1-(3-(2-(5-(5-((Ethylamino)methyl)pyridin-3-yl)-1H-pyrazolo[3,4-b]pyridin-3-yl)-1H-indol-4-yl)-5-fluorophenyl)-N^2,N^2-dimethylethane-1,2-diamine]	74		6.02	
Fc1ccc(-c2cccc3[nH]c(-c4n[nH]c5ncc(-c6cncc(CN7CCCCC7)c6)cc45)cc23)cc1 [Compound 36, 3-(4-(4-Fluorophenyl)-1H-indol-2-yl)-5-(5-(piperidin-1-ylmethyl)pyridin-3-yl)-1H-pyrazolo[3,4-b]pyridine]	67	10	5.44	
c1cncc(-c2cccc3[nH]c(-c4n[nH]c5ncc(-c6cncc(CN7CCCCC7)c6)cc45)cc23)c1 [Compound 84, 5-(5-(Piperidin-1-ylmethyl)pyridin-3-yl)-3-(4-(pyridin-3-yl)-1H-indol-2-yl)-1H-pyrazolo[3,4-b]pyridine]	82	900	< 5.00	48.5
CC(C)Nc1cncc(-c2cnc3[nH]nc(-c4cc5c(-c6cc(F)cc(NCCN(C)C)c6)cccc5[nH]4)c3c2)c1 [Compound 434, N^1-(3-Fluoro-5-(2-(5-(5-(isopropylamino)pyridin-3-yl)-1H-pyrazolo[3,4-b]pyridin-3-yl)-1H-indol-4-yl)phenyl)-N^2,N^2-dimethylethane-1,2-diamine]	56		6.51	
O=C(Nc1cncc(-c2cnc3[nH]nc(-c4cc5c(-c6cccnc6)cccc5[nH]4)c3c2)c1)C1CCC1 [Compound 89, N-(5-(3-(4-(Pyridin-3-yl)-1H-indol-2-yl)-1H-pyrazolo[3,4-b]pyridin-5-yl)pyridin-3-yl)cyclobutanecarboxamide]	41		6.64	
c1ccc(-c2cccc3[nH]c(-c4n[nH]c5ncc(-c6cncnc6)cc45)cc23)nc1 [Compound 143, 3-(4-(Pyridin-2-yl)-1H-indol-2-yl)-5-(pyrimidin-5-yl)-1H-pyrazolo[3,4-b]pyridine]	25		5.69	
CN(C)c1cncc(-c2cnc3[nH]nc(-c4cc5c(-c6cccc(F)c6)cccc5[nH]4)c3c2)c1 [Compound 5, 5-(3-(4-(3-Fluorophenyl)-1H-indol-2-yl)-1H-pyrazolo[3,4-b]pyridin-5-yl)-N,N-dimethylpyridin-3-amine]	49		6.17	
CN(C)CCNc1cc(F)cc(-c2cccc3[nH]c(-c4n[nH]c5ncc(-c6cncc(NC(=O)C7CCC7)c6)cc45)cc23)c1 [Compound 443, N-(5-(3-(4-(3-((2-(Dimethylamino)ethyl)amino)-5-fluorophenyl)-1H-indol-2-yl)-1H-pyrazolo[3,4-b]pyridin-5-yl)pyridin-3-yl)cyclobutanecarboxamide]	78	100	6.67	
Fc1ccc(-c2cccc3[nH]c(-c4n[nH]c5ncc(-c6cncnc6)cc45)cc23)cc1 [Compound 47, 3-(4-(4-Fluorophenyl)-1H-indol-2-yl)-5-(pyrimidin-5-yl)-1H-pyrazolo[3,4-b]pyridine]	135	10	5.56	
CN(C)CCOc1cncc(-c2cnc3[nH]nc(-c4cc5c(-c6cccnc6)cccc5[nH]4)c3c2)c1 [Compound 565, N,N-Dimethyl-2-((5-(3-(4-(pyridin-3-yl)-1H-indol-2-yl)-1H-pyrazolo[3,4-b]pyridin-5-yl)pyridin-3-yl)oxy)ethan-1-amine]	46		< 5.00	34.5
CC(C)(C)CC(=O)Nc1cncc(-c2cnc3[nH]nc(-c4cc5c(-c6ccccn6)cccc5[nH]4)c3c2)c1 [Compound 133, 3,3-Dimethyl-N-(5-(3-(4-(pyridin-2-yl)-1H-indol-2-yl)-1H-pyrazolo[3,4-b]pyridin-5-yl)pyridin-3-yl)butanamide]	345	900	6.00	
CCNCc1cncc(-c2cnc3[nH]nc(-c4cc5c(-c6ccccn6)cccc5[nH]4)c3c2)c1 [Compound 124, N-((5-(3-(4-(Pyridin-2-yl)-1H-indol-2-yl)-1H-pyrazolo[3,4-b]pyridin-5-yl)pyridin-3-yl)methyl)ethanamine]	32		5.15	
c1cncc(-c2cnc3[nH]nc(-c4cc5c(-c6cccnc6)cccc5[nH]4)c3c2)c1 [Compound 74, 5-(Pyridin-3-yl)-3-(4-(pyridin-3-yl)-1H-indol-2-yl)-1H-pyrazolo[3,4-b]pyridine]	29		6.24	
CCNCc1cncc(-c2cnc3[nH]nc(-c4cc5c(-c6ccccc6F)cccc5[nH]4)c3c2)c1 [Compound 52, N-((5-(3-(4-(2-Fluorophenyl)-1H-indol-2-yl)-1H-pyrazolo[3,4-b]pyridin-5-yl)pyridin-3-yl)methyl)ethanamine]	64		5.23	
CS(=O)(=O)NCc1cc(F)cc(-c2cccc3[nH]c(-c4n[nH]c5ncc(-c6cncc(N)c6)cc45)cc23)c1 [Compound 453, N-(3-(2-(5-(5-Aminopyridin-3-yl)-1H-pyrazolo[3,4-b]pyridin-3-yl)-1H-indol-4-yl)-5-fluorobenzyl)methanesulfonamide]	189	900	6.80	
FC1(F)CCN(Cc2cncc(-c3cnc4[nH]nc(-c5cc6c(-c7ccncc7)cccc6[nH]5)c4c3)c2)C1 [Compound 118, 5-(5-((3,3-Difluoropyrrolidin-1-yl)methyl)pyridin-3-yl)-3-(4-(pyridin-4-yl)-1H-indol-2-yl)-1H-pyrazolo[3,4-b]pyridine]	29		6.15	
O=C(CC1CCNCC1)Nc1cncc(-c2cnc3[nH]nc(-c4cc5c(-c6ccccn6)cccc5[nH]4)c3c2)c1 [Compound 595, 2-(Piperidin-4-yl)-N-(5-(3-(4-(pyridin-2-yl)-1H-indol-2-yl)-1H-pyrazolo[3,4-b]pyridin-5-yl)pyridin-3-yl)acetamide]	79		5.43	
